Results taken from patent US20040220204A1, “Pharmaceutical composition comprising a tricyclic compound for the prevention or treatment of skin diseases” (priority 2001, published 2004).

Test: stabilization of FK506 dissolved in lower alkanediols
Assay type: physicochemical
Settings: such as ethylene glycol, propylene glycol, butylene glycol
Method: It was also confirmed that carboxybinyl polymer could make FK506 stable, when FK506 was dissolved in lower alkanediols, such as ethylene glycol, propylene glycol, butylene glycol, etc. And, it was further confirmed that a combination of hydroxypropyl cellulose and ascorbyl palmitate could also make FK506 stable, when FK506 was dissolved in lower alkanediols, such as ethylene glycol, propylene glycol, butylene glycol, etc.

For C=CC[C@@H]1/C=C(\C)C[C@H](C)C[C@H](OC)[C@H]2O[C@@](O)(C(=O)C(=O)N3CCCC[C@H]3C(=O)O[C@H](/C(C)=C/[C@@H]3CC[C@@H](O)[C@H](OC)C3)[C@H](C)[C@@H](O)CC1=O)[C@H](C)C[C@@H]2OC [FK506, 17-allyl-1,14-dihydroxy-12-[2-(4-hydroxy-3-methoxycyclohexyl)-1-methylvinyl]-23,25-dimethoxy-13,19,21,27-tetramethyl-11,28-dioxa-4-azatricyclo[22.3.1.0^4,9]octacos-18-ene-2,3,10,16-tetraone], the “stability of FK506 with carboxybinyl polymer” value (carboxybinyl polymer added) was “stable” and the “stability of FK506 with a combination of hydroxypropyl cellulose and ascorbyl palmitate” value (hydroxypropyl cellulose and ascorbyl palmitate added) was “stable”.
